Assay results reported in patent publication US20250099356A1, “PERSONAL CARE COMPOSITION WITH N-CAPRYLOYL L-GLUTAMINE AND GLYCERYL MONOUNDECYLENATE AS PRESERVATIVE” (GALAXY SURFACTANTS LTD., priority 2024, published 2025).

Assays:
[1] = test system: Micrococcus luteus NCIM 2103; experiment: Minimum inhibitory concentration (PCPC protocol); format: cell-based; settings: Gram positive
Experimental: (§1) The MIC (minimum inhibitory concentrations) of N-capryloyl L-glutamine and glyceryl monoundecylenate and 1:1 mixture (by weight) of the two antimicrobials against various microbes are determined as per PCPC (Personal Care Product Council, Washington, USA) protocol.

[2] = test system: Aspergillus niger ATCC 16404; experiment: Minimum inhibitory concentration (PCPC protocol); format: cell-based; settings: Mold
Experimental: as §1

[3] = test system: Candida albicans ATCC 10231; experiment: Minimum inhibitory concentration (PCPC protocol); format: cell-based; settings: Yeast
Experimental: as §1

[4] = test system: Escherichia coli ATCC 8739; experiment: Minimum inhibitory concentration (PCPC protocol); format: cell-based; settings: Gram negative
Experimental: as §1

[5] = test system: Burkholderia cepacia ATCC 25416; experiment: Minimum inhibitory concentration (PCPC protocol); format: cell-based; settings: Gram negative
Experimental: as §1

[6] = test system: Corynebacterium xerosis ATCC 373; experiment: Minimum inhibitory concentration (PCPC protocol); format: cell-based; settings: Gram positive
Experimental: as §1

[7] = test system: Pseudomonas aeruginosa ATCC 15442; experiment: Minimum inhibitory concentration (PCPC protocol); format: cell-based; settings: Gram negative
Experimental: as §1

[8] = test system: Staphylococcus hominis MTCC 8980; experiment: Minimum inhibitory concentration (PCPC protocol); format: cell-based; settings: Gram positive
Experimental: as §1

[9] = test system: Malassezia furfur ATCC 14521; experiment: Minimum inhibitory concentration (PCPC protocol); format: cell-based; settings: Yeast
Experimental: as §1

[10] = test system: Cutibacterium acnes ATCC 6919; experiment: Minimum inhibitory concentration (PCPC protocol); format: cell-based; settings: Gram positive
Experimental: as §1

[11] = test system: Staphylococcus aureus ATCC 6538; experiment: Minimum inhibitory concentration (PCPC protocol); format: cell-based; settings: Gram positive; b76: at skin pH of 5.5
Experimental: as §1

[12] = test system: Gardnerella vaginalis ATCC 14018; experiment: Minimum inhibitory concentration (PCPC protocol); format: cell-based; settings: Gram variable
Experimental: as §1

[13] = test system: Staphylococcus epidermidis NCIM 2493; experiment: Minimum inhibitory concentration (PCPC protocol); format: cell-based; settings: Gram positive, b76: at skin pH of 5.5
Experimental: as §1

[14] = test system: Malassezia restricta ATCC MYA 4611; experiment: Minimum inhibitory concentration (PCPC protocol); format: cell-based; settings: Yeast
Experimental: as §1

[15] = test system: Candida glabrata ATCC 66032; experiment: Minimum inhibitory concentration (PCPC protocol); format: cell-based; settings: Yeast
Experimental: as §1

[16] = Biodegradability, OECD 301D-Closed Bottle Test
Text: N-capryloyl L-glutamine and glyceryl monoundecylenate, derived from renewable sources, are compatible with most used ingredients of the personal care compositions.

Malassezia yeast = experiment: Minimum inhibitory concentration, Malassezia yeast; format: cell-based; settings: species not given
Experimental: as §1

bacteria, yeast and mold = experiment: Challenge test (preservation efficacy) in cleansing surfactant composition of Table 2a; format: cell-based; settings: for challenge test / preservation efficacy test: 1.5% level in the same formulation, pH 5.5 and 7.0
Text: In an embodiment several personal care compositions of various types have been tested for the preservation efficacy of the combination of N-capryloyl L-glutamine and glyceryl monoundecylenate using PCPC (Personal Care Products Council, Washington DC, formerly known as CTFA) protocol ('Evaluation of preservatives to protect cosmetics' by D. Orth in Cosmetics and Toiletries, March 91). […] Both ‘rinse-off’ and ‘leave-on’ formulations (Examples 5 to 10) passed the challenge tests. Using the typical surfactant composition two sets are prepared at different pHs, 5.5 and 7.0. Antimicrobials individually and in combination are tested for preservation efficacy. [table]

[17] = antimicrobial 1.5% in total in cleansing formulation of Table 2a, pH 5.5
[18] = antimicrobial 1.5% in total in cleansing formulation of Table 2a, pH 7.0
[19] = antimicrobial 2.0% in cleansing formulation of Table 2a, pH 5.5
[20] = antimicrobial 2.0% in total in cleansing formulation of Table 2a, pH 7.0
[21] = deployed alone at 2% in the surfactant composition, at both acidic and neutral pH (5.5 and 7.0)

Row | Compound | MIC in % Micrococcus luteus NCIM 2103 [1] [%] | MIC in % Aspergillus niger ATCC 16404 [2] [%] | MIC in % Candida albicans ATCC 10231 [3] [%] | MIC in % Escherichia coli ATCC 8739 [4] [%] | MIC in % Burkholderia cepacia ATCC 25416 [5] [%] | MIC in % Corynebacterium xerosis ATCC 373 [6] [%] | MIC in % Pseudomonas aeruginosa ATCC 15442 [7] [%] | MIC in % Staphylococcus hominis MTCC 8980 [8] [%] | MIC in % Malassezia furfur ATCC 14521 [9] [%] | MIC in % Cutibacterium acnes ATCC 6919 [10] [%] | MIC in % Staphylococcus aureus ATCC 6538 [11] [%] | MIC in % Gardnerella vaginalis ATCC 14018 [12] [%] | MIC in % Staphylococcus epidermidis NCIM 2493 [13] [%] | MIC in % Malassezia restricta ATCC MYA 4611 [14] [%] | MIC in % Candida glabrata ATCC 66032 [15] [%] | biodegradability as per OECD 301D-Closed Bottle Test [16] | MIC against Malassezia yeast (Malassezia yeast) [%] | challenge test / preservation efficacy test (bacteria, yeast and mold) | Challenge Test (bacteria, yeast and mold; [17]) | Challenge Test (bacteria, yeast and mold; [18]) | also measured
1 | CCCCCCCC(=O)N[C@@H](CCC(N)=O)C(=O)O [CG, N-capryloyl L-glutamine] | 0.5 | 1 | 0.6 | 0.7 | 1 | 0.5 | 0.7 | 0.6 | 0.3 | 0.2 | 0.3 | 0.6 | 0.9 | 0.4 | 0.6 | completely biodegradable | 0.2 | fail to pass the challenge test | Passes | Fails | MIC in % Staphylococcus epidermidis NCIM 2493 ([13]; listed as N-capryloyl L-glutamine): 1.0%; Challenge Test (bacteria, yeast and mold; [19]): Passes; Challenge Test (bacteria, yeast and mold; [20]): Passes; Challenge Test (bacteria, yeast and mold; [21]): preserve the composition
2 | C=CCCCCCCCCC(=O)OCC(O)CO (stereo not shown) [GMU, glyceryl monoundecylenate] | 0.5 | 0.8 | 1 | 1 | 1 | 0.5 | 1 | 0.7 | 0.2 | 0.9 | 0.1 | 0.3 | 1 | 0.2 | 0.4 | completely biodegradable | 0.2 | fail to pass the challenge test | Fails | Fails | MIC in % Staphylococcus epidermidis NCIM 2493 ([13]; listed as glyceryl mono undecylenate): 1.0%; MIC in % Staphylococcus epidermidis NCIM 2493 ([13]; listed as glyceryl monoundecylenate): 0.9%; Challenge Test (bacteria, yeast and mold; [19]): Passes; Challenge Test (bacteria, yeast and mold; [20]): Passes; Challenge Test (bacteria, yeast and mold; [21]): preserve the composition
